Reference: ChEMBL document CHEMBL4346653, “A2B Adenosine Receptor Antagonists with Picomolar Potency” (J Med Chem, 2019)

What was measured:
[1] = molecular target: T1, Adenosine receptor A1 (Mus musculus) (UniProt Q60612); assay: Displacement of [3H]CCPA from recombinant mouse A1 adenosine receptor expressed in CHO cell membranes at 1 uM measured after 90 mins in presence of adenosine deaminase by liquid scintillation counting method relative to control
T1 sequence (whole entry): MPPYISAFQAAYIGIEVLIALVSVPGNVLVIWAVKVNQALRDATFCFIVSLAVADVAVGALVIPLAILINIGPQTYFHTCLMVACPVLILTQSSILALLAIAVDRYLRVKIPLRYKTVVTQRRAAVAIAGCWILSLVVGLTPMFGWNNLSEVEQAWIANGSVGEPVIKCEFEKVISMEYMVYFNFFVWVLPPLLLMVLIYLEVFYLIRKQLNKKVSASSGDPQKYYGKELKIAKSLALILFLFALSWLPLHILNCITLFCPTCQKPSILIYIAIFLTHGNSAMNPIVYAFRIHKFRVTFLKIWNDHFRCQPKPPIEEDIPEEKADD

Mus musculus [2] = species on record: Mus musculus; assay: Selectivity ratio of Ki for displacement of [3H]NECA from recombinant mouse A3 adenosine receptor expressed in CHO cell membranes to Ki for displacement of [3H]PSB-603 from recombinant mouse A2B adenosine receptor expressed in CHO cell membranes
Homo sapiens = species on record: Homo sapiens; assay: Selectivity index, ratio of Ki for displacement of [3H]MSX-2 from recombinant human A2A adenosine receptor expressed in CHO cell membranes to Ki for displacement of [3H]PSB-603 from recombinant human A2B adenosine receptor expressed in CHO cell membranes
Mus musculus [3] = species on record: Mus musculus; assay: Selectivity ratio of Ki for displacement of [3H]CCPA from recombinant mouse A1 adenosine receptor expressed in CHO cell membranes to Ki for displacement of [3H]PSB-603 from recombinant mouse A2B adenosine receptor expressed in CHO cell membranes
Adenosine receptor A1 = molecular target: T2, Adenosine receptor A1 (Mus musculus, UniProt Q60612); assay: Displacement of [3H]CCPA from recombinant mouse A1 adenosine receptor expressed in CHO cell membranes measured after 90 mins in presence of adenosine deaminase by liquid scintillation counting method
T2 sequence (Q60612 whole entry): T1 sequence (whole entry)

Adenosine receptor A2b = molecular target: T3, Adenosine receptor A2b (Mus musculus, UniProt Q60614); assay: Displacement of [3H]PSB-603 from recombinant mouse A2B adenosine receptor expressed in CHO cell membranes measured after 75 mins in presence of adenosine deaminase by liquid scintillation counting method
T3 sequence (Q60614 whole entry): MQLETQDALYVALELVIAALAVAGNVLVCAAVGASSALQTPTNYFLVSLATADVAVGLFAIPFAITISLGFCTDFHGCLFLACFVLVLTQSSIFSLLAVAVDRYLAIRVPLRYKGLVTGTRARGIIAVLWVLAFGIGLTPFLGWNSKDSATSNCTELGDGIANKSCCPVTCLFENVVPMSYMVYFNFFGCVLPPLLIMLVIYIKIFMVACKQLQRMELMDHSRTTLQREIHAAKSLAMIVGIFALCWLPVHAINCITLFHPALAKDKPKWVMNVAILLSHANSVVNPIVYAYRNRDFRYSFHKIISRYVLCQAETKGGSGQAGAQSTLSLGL

[4] = molecular target: T4, Adenosine receptor A2b (Homo sapiens) (UniProt P29275); assay: Competitive antagonist activity at recombinant human A2B adenosine receptor expressed in CHO cells assessed as reduction in NECA-induced […] cAMP accumulation preincubated for 10 mins followed by NECA stimulation for 15 mins […] and measured after 15 mins; type: functional, cell-based
T4 sequence (whole entry): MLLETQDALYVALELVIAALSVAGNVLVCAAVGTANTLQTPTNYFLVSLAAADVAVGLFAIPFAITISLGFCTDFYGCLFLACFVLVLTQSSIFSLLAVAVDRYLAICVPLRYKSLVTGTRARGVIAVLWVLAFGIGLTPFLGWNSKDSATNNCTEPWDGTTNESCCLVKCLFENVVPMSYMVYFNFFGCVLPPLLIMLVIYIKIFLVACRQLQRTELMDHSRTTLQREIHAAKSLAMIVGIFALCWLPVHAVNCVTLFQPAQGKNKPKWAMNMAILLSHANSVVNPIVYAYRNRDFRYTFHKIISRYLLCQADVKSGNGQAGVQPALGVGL

[5] = Selectivity ratio of Ki for displacement of [3H]PSB-603 from recombinant mouse A2B adenosine receptor expressed in CHO cell membranes to Ki for displacement of [3H]PSB-603 from recombinant human A2B adenosine receptor expressed in CHO cell membranes

| Compound | inhibition [1] [%] | Ratio Ki (Mus musculus [2]) | Ratio Ki (Homo sapiens) | Ratio Ki (Mus musculus [3]) | Ki (Adenosine receptor A1) [nM] | Ki (Adenosine receptor A2b) [nM] | Kb [4] [nM] | Ratio Ki [5] |
| --- | --- | --- | --- | --- | --- | --- | --- | --- |
| CCCn1c(=O)[nH]c2nc(-c3ccc(S(=O)(=O)N4CCN(c5ccc(Br)cc5)CC4)cc3)[nH]c2c1=O | 29 | > 7630 | > 12000 | > 7630 | > 1000 | 0.131 | 0.0598 |  |
| CCCn1c(=O)[nH]c2nc(-c3ccc(S(=O)(=O)N4CCN(c5cccc(F)c5)CC4)cc3)[nH]c2c1=O | 46 |  | > 1580 | > 320 | > 300 | 0.926 | 0.167 | 1.5 to 6 |
| CCCn1c(=O)c2[nH]c(-c3ccc(S(=O)(=O)N4CCN(c5ccc(Cl)cc5)CC4)cc3)nc2n(C)c1=O |  | 180 | > 520 |  | 1520 | 8.34 | 1.61 | 1.5 to 6 |
